Reference: patent US9376436B2, “2-(pyridin-2yl)-1, 7-diaza-spiro [4.4] nonane-6-one compound as voltage-gated sodium channels modulators” (CONVERGENCE PHARMACEUTICALS LIMITED, priority 2011, dated 2016)
Where a name gives a salt, the structure may show the parent alone. Read-outs that look alike come from different tables or passages of the source.

Target: T1, hNaV1.7 (Homo sapiens, UniProt Q15858)
T1 construct: expressed in transfected cells; host or cells: HEK293
Experiment: QPatch NaV1.7 assay (whole-cell patch clamp, QPatch16x)
Format: cell-based
Details: HEK293-hNaV1.7 cells
In short: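 HEK293 cells expressing hNaV1.7 recorded by automated whole-cell patch clamp (CsF internal, pH 7.3). Peak currents from 20 ms steps to 0 mV measured at holding potentials of −90 mV and V1/2 SSI; four-point cumulative concentrations, 120 s each, Hill fits gave pIC50 at each potential.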

[1] = holding voltage V1/2 SSI (half of channels inactivated), read-out: QP Nav1.7 SSI vhalf pIC50 (converted)
[2] = holding voltage −90 mV (most channels closed), read-out: QP Nav1.7 −90 mV pIC50 (converted)

T1 sequence (Q15858 whole entry): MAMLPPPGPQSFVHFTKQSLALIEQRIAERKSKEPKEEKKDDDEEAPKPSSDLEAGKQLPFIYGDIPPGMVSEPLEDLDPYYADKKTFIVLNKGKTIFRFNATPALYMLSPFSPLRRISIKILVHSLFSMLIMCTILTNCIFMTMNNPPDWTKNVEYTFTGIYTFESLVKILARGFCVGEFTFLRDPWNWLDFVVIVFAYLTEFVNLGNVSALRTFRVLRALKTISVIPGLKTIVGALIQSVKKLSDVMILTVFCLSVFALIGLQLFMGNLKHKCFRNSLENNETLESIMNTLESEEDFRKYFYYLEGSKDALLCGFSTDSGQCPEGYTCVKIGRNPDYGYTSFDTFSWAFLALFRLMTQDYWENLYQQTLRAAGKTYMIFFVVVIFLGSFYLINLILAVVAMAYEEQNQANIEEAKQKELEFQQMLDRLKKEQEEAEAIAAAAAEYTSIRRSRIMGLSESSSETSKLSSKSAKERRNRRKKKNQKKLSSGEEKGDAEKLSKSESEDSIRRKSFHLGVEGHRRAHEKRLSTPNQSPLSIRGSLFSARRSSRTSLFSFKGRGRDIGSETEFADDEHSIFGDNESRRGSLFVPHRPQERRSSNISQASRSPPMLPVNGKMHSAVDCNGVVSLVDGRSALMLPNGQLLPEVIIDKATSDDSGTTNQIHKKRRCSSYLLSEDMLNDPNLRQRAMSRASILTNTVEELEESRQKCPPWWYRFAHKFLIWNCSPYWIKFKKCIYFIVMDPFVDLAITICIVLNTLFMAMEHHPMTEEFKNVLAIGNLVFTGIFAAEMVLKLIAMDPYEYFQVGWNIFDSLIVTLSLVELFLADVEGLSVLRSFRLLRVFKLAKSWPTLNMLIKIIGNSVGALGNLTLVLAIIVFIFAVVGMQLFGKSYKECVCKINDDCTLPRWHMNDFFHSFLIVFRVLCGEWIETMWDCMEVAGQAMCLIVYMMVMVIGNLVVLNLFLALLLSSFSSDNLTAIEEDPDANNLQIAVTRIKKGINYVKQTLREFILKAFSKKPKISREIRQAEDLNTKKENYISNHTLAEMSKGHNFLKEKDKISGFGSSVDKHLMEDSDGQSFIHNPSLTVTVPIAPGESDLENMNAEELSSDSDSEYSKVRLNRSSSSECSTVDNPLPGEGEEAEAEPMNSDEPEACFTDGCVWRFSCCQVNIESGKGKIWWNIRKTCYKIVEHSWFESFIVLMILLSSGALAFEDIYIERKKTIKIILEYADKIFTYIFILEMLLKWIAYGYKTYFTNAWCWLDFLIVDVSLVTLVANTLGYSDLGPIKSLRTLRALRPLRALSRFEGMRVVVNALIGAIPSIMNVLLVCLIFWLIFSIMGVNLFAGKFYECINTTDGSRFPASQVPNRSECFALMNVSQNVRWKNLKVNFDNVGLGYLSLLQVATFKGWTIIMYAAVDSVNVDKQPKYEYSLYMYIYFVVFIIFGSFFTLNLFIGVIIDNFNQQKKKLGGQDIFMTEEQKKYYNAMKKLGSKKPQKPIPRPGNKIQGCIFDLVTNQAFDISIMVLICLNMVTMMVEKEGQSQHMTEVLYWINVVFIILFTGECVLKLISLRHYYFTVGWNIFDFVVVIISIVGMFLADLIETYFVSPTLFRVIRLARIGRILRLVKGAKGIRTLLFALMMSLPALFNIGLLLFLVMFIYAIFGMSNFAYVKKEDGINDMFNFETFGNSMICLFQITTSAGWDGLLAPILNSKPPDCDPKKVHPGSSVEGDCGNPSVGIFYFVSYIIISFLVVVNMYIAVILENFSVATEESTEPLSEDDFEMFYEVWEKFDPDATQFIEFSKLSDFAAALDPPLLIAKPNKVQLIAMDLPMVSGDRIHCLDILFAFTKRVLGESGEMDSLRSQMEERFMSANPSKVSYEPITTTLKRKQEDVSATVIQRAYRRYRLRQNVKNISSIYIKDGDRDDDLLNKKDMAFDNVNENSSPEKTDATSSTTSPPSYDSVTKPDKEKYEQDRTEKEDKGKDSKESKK

Structure (SMILES)	IC50 [1] [µM]	IC50 [2] [µM]
O=C1NCCC[C@]12CC[C@H](c1cc(-c3ccc(F)cc3)ccn1)N2 [Example 112, (2R,5S)-2-[4-(4-Fluoro-phenyl)-pyridin-2-yl]-1,7-diaza-spiro[4.5]decan-6-one hydrochloride]	3.98	39.8
CCS(=O)(=O)c1ccc(-c2cc(C)nc([C@@H]3CC[C@]4(CCN(C)C4=O)N3)c2)cc1 [Example 210, (2S,5R)-2-[4-(4-Ethylsulfonylphenyl)-6-methyl-2-pyridyl]-7-methyl-1,7-diazaspiro[4.4]nonan-6-one hydrochloride]	398	
CN1CC[C@@]2(CC[C@H](c3cc(-c4cccc(-n5cccn5)c4)ccn3)N2)C1=O [Example 173, (2R,5S)-7-Methyl-2-[4-(3-pyrazol-1-ylphenyl)-2-pyridyl]-1,7-diazaspiro[4.4]nonan-6-one hydrochloride]	12.6	200
CN1CC[C@@]2(CC[C@H](c3cc(-c4cccc5[nH]ncc45)ccn3)N2)C1=O [Example 187, (2R,5S)-2-[4-(1H-Indazol-4-yl)-2-pyridyl]-7-methyl-1,7-diazaspiro[4.4]nonan-6-one hydrochloride]	200	1000
O=C1NCC[C@@]12CC[C@H](c1cc(-c3cccc(OC(F)(F)F)c3)ccn1)N2 [Example 118, (2R,5S)-2-[4-[3-(Trifluoromethoxy)phenyl]-2-pyridyl]-1,7-diazaspiro[4.4]nonan-6-one hydrochloride]	7.94	50.1
CN1CC[C@]2(CC[C@H](c3cc(-c4ccccc4F)ccn3)N2)C1=O [Example 35, (2R,5R)-2-[4-(2-Fluoro-phenyl)-pyridin-2-yl]-7-methyl-1,7-diaza-spiro[4.4]nonan-6-one hydrochloride]	100	398
COc1ccc(-c2ccnc([C@H]3CC[C@@]4(CCN(C)C4=O)N3)c2)cc1OC [Example 163, (2R,5S)-2-[4-(3,4-Dimethoxyphenyl)-2-pyridyl]-7-methyl-1,7-diazaspiro[4.4]nonan-6-one hydrochloride]		7940
CN1CC[C@@]2(CC[C@H](c3cc(-c4ccc(C(F)(F)F)cc4)c(OC(C)(C)C)cn3)N2)C1=O [Example 62, (2R,5S)-2-[5-tert-Butoxy-4-[4-(trifluoromethyl)-phenyl]-2-pyridyl]-7-methyl-1,7-diazaspiro[4.4]nonan-6-one hydrochloride]	2	79.4
COc1cc(C(F)(F)F)ccc1-c1cc([C@@H]2CC[C@]3(CCN(C)C3=O)N2)ncc1C [Example 129, (2S,5R)-2-[4-[2-Methoxy-4-(trifluoromethyl)phenyl]-5-methyl-2-pyridyl]-7-methyl-1,7-diazaspiro[4.4]nonan-6-one hydrochloride]	20	200
Cc1cnc([C@@H]2CC[C@@]3(CCN(C)C3=O)N2)cc1-c1ccc(C(F)(F)F)cc1 [Example 40, (2S,5S)-7-Methyl-2-[5-methyl-4-[4-(trifluoromethyl)phenyl]-2-pyridyl]-1,7-diazaspiro[4.4]nonan-6-one hydrochloride]	1.58	50.1
Cc1c(-c2ccc(C(F)(F)F)cc2)ccnc1[C@@H]1CC[C@@]2(CCN(C)C2=O)N1 [Example 16, (2S,5S)-7-Methyl-2-[3-methyl-4-[4-(trifluoromethyl)phenyl]-2-pyridyl]-1,7-diazaspiro[4.4]nonan-6-one hydrochloride]	12.6	100
CCn1cc2cc(F)c(-c3ccnc([C@H]4CC[C@@]5(CCN(C)C5=O)N4)c3)cc2n1 [Example 259, (2R,5S)-2-[4-(2-Ethyl-5-fluoro-indazol-6-yl)-2-pyridyl]-7-methyl-1,7-diazaspiro[4.4]nonan-6-one hydrochloride]	1260	158
CN1CC[C@@]2(CC(F)(F)C(c3cc(-c4ccc(C(F)(F)F)cc4)ccn3)N2)C1=O (mixture of isomers) [Example 240, (5R)-3,3-Difluoro-7-methyl-2-[4-[4-(trifluoromethyl)phenyl]-2-pyridyl]-1,7-diazaspiro[4.4]nonan-6-one hydrochloride]	1.58	31.6
CN1CC[C@@]2(CC[C@H](c3cc(-c4ccccc4C(F)(F)F)ccn3)N2)C1=O [Example 7, (2R,5S)-7-Methyl-2-[4-[2-(trifluoro-methyl)phenyl]-2-pyridyl]-1,7-diazaspiro[4.4]nonan-6-one hydrochloride]	31.6	100
CCOc1ccc(F)c(-c2cc(C(C)C)nc([C@@H]3CC[C@]4(CCN(C)C4=O)N3)c2)c1 [Example 235, (2S,5R)-2-[4-(5-Ethoxy-2-fluoro-phenyl)-6-isopropyl-2-pyridyl]-7-methyl-1,7-diazaspiro[4.4]nonan-6-one hydrochloride]	2	15.8
O=C1NCC[C@]12CC[C@@H](c1cc(-c3ccc(C(F)(F)F)cc3)ccn1)N2 [Example 114, (2S,5R)-2-[4-[4-(Trifluoromethyl)phenyl]-2-pyridyl]-1,7-diazaspiro[4.4]nonan-6-one hydrochloride]	15.8	79.4
O=C1NCC[C@]12CC[C@H](c1cc(-c3cccc(OC(F)(F)F)c3)ccn1)N2 [Example 117, (2R,5R)-2-[4-[3-(Trifluoromethoxy)phenyl]-2-pyridyl]-1,7-diazaspiro[4.4]nonan-6-one hydrochloride]	0.398	7.94
CN1CCC[C@@]2(CC[C@@H](c3cc(-c4ccc(C(F)(F)F)cc4)ccn3)N2)C1=O [Example 68, (2S,5R)-7-Methyl-2-[4-(4-trifluoromethyl-phenyl)-pyridin-2-yl]-1,7-diaza-spiro[4.5]decan-6-one hydrochloride]	5.01	25.1
COc1cnc([C@@H]2CC[C@@]3(CCN(C)C3=O)N2)cc1-c1ccc(C(F)(F)F)cc1 [Example 154, (2S,5S)-2-[5-Methoxy-4-[4-(trifluoromethyl)phenyl]-2-pyridyl]-7-methyl-1,7-diazaspiro[4.4]nonan-6-one hydrochloride]	12.6	100
CCOc1ccc(F)c(-c2ccnc([C@@H]3CC[C@@]4(CC(C)(C)NC4=O)N3)c2)c1 [Example 216, (2S,5S)-2-[4-(5-Ethoxy-2-fluoro-phenyl)-2-pyridyl]-8,8-dimethyl-1,7-diazaspiro[4.4]nonan-6-one hydrochloride]	5.01	31.6
CN1CC[C@@]2(CC[C@H](c3cc(-c4ccc5c(ccn5C)c4)ccn3)N2)C1=O [Example 79, (2R,5S)-7-Methyl-2-[4-(1-methylindol-5-yl)-2-pyridyl]-1,7-diazaspiro[4.4]nonan-6-one hydrochloride]	31.6	398
O=C1NCC[C@@]12CC[C@@H](c1cc(-c3ccc(C(F)(F)F)cc3)ccn1)N2 [Example 36, (2S,5S)-2-[4-[4-(Trifluoromethyl)phenyl]-2-pyridyl]-1,7-diazaspiro[4.4]nonan-6-one hydrochloride]	0.794	20
CCOc1cc(-c2cc(C)nc([C@H]3CC[C@@]4(CCN(C)C4=O)N3)c2)ccc1F [Example 125, hydrochloride]	25.1	158
